This note sets out measurements from US12528814B2, “Bifunctional degraders of interleukin-1 receptor-associated kinases and therapeutic use thereof” (NURIX THERAPEUTICS, INC., priority 2020, dated 2026).

The target in test [1] is T1, IRAK4 (Homo sapiens (Human), UniProt Q9NWZ3). The test is described as follows: IRAK4 Biochemical HTRF Kinase Assay. The settings on record: read-out: IRAK4 HTRF biochemical: IC50. The method, boiled down: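 HTRF KinEASE STK S1 format measuring IRAK4 phosphorylation of biotinylated peptide; reaction solution of 5 μM STK-S1, 10 mM ATP, 10 mM MgCl2 added (stock, to 10 μl final), 90 min at ambient temperature, detection 60 min. IC50 from sixteen-point duplicate curves by non-linear regression.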
A general note: In TR-FRET formats the signal depends on donor and acceptor labels being close together.
Target sequence in this assay (Q9NWZ3 whole entry, species assumed): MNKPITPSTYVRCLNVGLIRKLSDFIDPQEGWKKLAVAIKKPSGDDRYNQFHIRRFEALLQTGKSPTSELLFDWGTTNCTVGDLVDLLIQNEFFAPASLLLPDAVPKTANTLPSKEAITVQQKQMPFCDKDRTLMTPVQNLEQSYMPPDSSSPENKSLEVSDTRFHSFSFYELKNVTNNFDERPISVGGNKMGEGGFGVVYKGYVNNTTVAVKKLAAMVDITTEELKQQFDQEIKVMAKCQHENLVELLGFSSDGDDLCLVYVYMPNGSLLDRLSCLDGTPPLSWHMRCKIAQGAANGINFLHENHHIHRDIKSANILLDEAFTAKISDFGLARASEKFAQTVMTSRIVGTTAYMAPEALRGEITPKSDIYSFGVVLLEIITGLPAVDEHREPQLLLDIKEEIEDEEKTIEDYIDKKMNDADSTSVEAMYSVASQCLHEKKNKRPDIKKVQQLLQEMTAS

Test [2] has as its target T1, IRAK4. The experiment in a line: IRAK4 Degradation HiBiT Assay. Conditions: HiBiT-tagged Jurkat cells, 4 hrs; for Dmax: Jurkat; for DC50: read-out: Cellular IRAK4 HiBiT: DC50.
Target sequence in this assay (Q9NWZ3 whole entry): as the sequence (Q9NWZ3 whole entry, species assumed) above
[3] abbreviates: read-out: Cellular IRAK4 HiBiT: Dmax, Table 5, multiple runs.
[4] abbreviates: read-out: Cellular IRAK4 HiBiT: Dmax, Table 4.

Read-outs that look alike come from different tables or passages of the source.

One may read the IC50 as the concentration that gives 50% inhibition. One may read the Dmax as the greatest extent of degradation seen. Usually DC50 stands for the midpoint of the concentration-degradation curve. In the case of `CNc1cc(-c2ccc3cc(C#N)cnn23)ncc1-c1nnc([C@H]2C[C@H](NC(=O)C[C@H](NC(=O)[C@@H]3C[C@@H](O)CN3C(=O)[C@@H](NC(=O)C3(F)CC3)C(C)(C)C)c3ccc(-c4scnc4C)cc3)C2)s1` [Example 183, (2S,4R)—N—((S)-3-(((1r,3S)-3-(5-(6-(3-cyanopyrrolo[1,2-b]pyridazin-7-yl)-4-(methylamino)pyridin-3-yl)-1,3,4-thiadiazol-2-yl)cyclobutyl)amino)-1-(4-(4-methylthiazol-5-yl)phenyl)-3-oxopropyl)-1-((S)-2-(1-fluorocyclopropane-1-carboxamido)-3,3-dimethylbutanoyl)-4-hydroxypyrrolidine-2-carboxamide], the IC50 on IRAK4 [1] (Table 5, multiple runs) is 2.3 nM. The Dmax on IRAK4 [2] (setting [3]) came to 111%. In addition, the DC50 on IRAK4 [2] (Table 5, multiple runs) amounted to 222 nM.
The matching figures for `CC(C)Nc1cc(-c2ccc3cc(C#N)cnn23)ncc1-c1nnc(N2CCN(CC3CCN(c4ccc5c(=O)n(C6CCC(=O)NC6=O)ccc5c4)CC3)CC2)s1` (centres unmarked) [Example 72, 7-(5-(5-(4-((1-(2-(2,6-dioxopiperidin-3-yl)-1-oxo-1,2-dihydroisoquinolin-6-yl)piperidin-4-yl)methyl)piperazin-1-yl)-1,3,4-thiadiazol-2-yl)-4-(isopropylamino)pyridin-2-yl)pyrrolo[1,2-b]pyridazine-3-carbonitrile]: 3.1 nM, 94% and 189 nM.
On the same counts, the results for `CNc1cc(-c2ccc3cc(C#N)cnn23)ncc1-c1nnc([C@H]2CC[C@@H](NC(=O)CCOCCNc3ccc4c(c3)C(=O)N(C3CCC(=O)NC3=O)C4=O)CC2)s1` (some centres unmarked) [Example 115, N-((1s,4s)-4-(5-(6-(3-cyanopyrrolo[1,2-b]pyridazin-7-yl)-4-(methylamino)pyridin-3-yl)-1,3,4-thiadiazol-2-yl)cyclohexyl)-3-(2-((2-(2,6-dioxopiperidin-3-yl)-1,3-dioxoisoindolin-5-yl)amino)ethoxy)propanamide] are 2.2 nM, 78% and 44.7 nM.
Consider `CNc1cc(-c2ccc3cc(C#N)cnn23)ncc1-c1nnc([C@H]2CC[C@@H](NC(=O)CN3CCC4(CC3)CN(c3ccc5c(c3)C(=O)N(C3CCC(=O)NC3=O)C5=O)C4)CC2)s1` (some centres unmarked) [Example 127, N-((1s,4s)-4-(5-(6-(3-cyanopyrrolo[1,2-b]pyridazin-7-yl)-4-(methylamino)pyridin-3-yl)-1,3,4-thiadiazol-2-yl)cyclohexyl)-2-(2-(2-(2,6-dioxopiperidin-3-yl)-1,3-dioxoisoindolin-5-yl)-2,7-diazaspiro[3.5]nonan-7-yl)acetamide], for which the IC50 on IRAK4 [1] (Table 5, multiple runs) came to 0.8 nM. The Dmax on IRAK4 [2] (setting [3]) is 58%. Besides, the DC50 on IRAK4 [2] (Table 5, multiple runs) was 187 nM.
On the same counts, the results for `Cc1ncsc1-c1ccc(CNC(=O)[C@@H]2C[C@@H](O)CN2C(=O)[C@@H](NC(=O)C2(F)CC2)C(C)(C)C)c(OCC(=O)N2CCC(CN3CCN(c4nnc(-c5cnc(-c6ccc7cc(C#N)cnn67)cc5NC(C)C)s4)CC3)CC2)c1` [Example 84, (2S,4R)—N-(2-(2-(4-((4-(5-(6-(3-cyanopyrrolo[1,2-b]pyridazin-7-yl)-4-(isopropylamino)pyridin-3-yl)-1,3,4-thiadiazol-2-yl)piperazin-1-yl)methyl)piperidin-1-yl)-2-oxoethoxy)-4-(4-methylthiazol-5-yl)benzyl)-1-((S)-2-(1-fluorocyclopropane-1-carboxamido)-3,3-dimethylbutanoyl)-4-hydroxypyrrolidine-2-carboxamide] are 5.5 nM, 115% and 247 nM.
In the case of `CNc1cc(-c2ccc3cc(C#N)cnn23)ncc1-c1nnc(N2CCCC3(CN(Cc4ccc5c(c4)CN(C4CCC(=O)NC4=O)C5=O)C3)C2)s1` (centres unmarked) [Example 123, 7-(5-(5-(2-((2-(2,6-dioxopiperidin-3-yl)-1-oxoisoindolin-5-yl)methyl)-2,6-diazaspiro[3.5]nonan-6-yl)-1,3,4-thiadiazol-2-yl)-4-(methylamino)pyridin-2-yl)pyrrolo[1,2-b]pyridazine-3-carbonitrile], the IC50 on IRAK4 [1] (Table 5, multiple runs) was determined as 2.1 nM. At IRAK4 [2] (Table 5, multiple runs), the 50% degradation concentration (DC50) is over 9980 nM.
Turning to `Cc1ncsc1-c1ccc(CNC(=O)[C@@H]2C[C@@H](O)CN2C(=O)[C@@H](NC(=O)C2(F)CC2)C(C)(C)C)c(OCCOCCOCCOCCOCCOCCC(=O)N2CCN(c3nnc(-c4cnc(-c5ccc6cc(C#N)cnn56)cc4NC(C)C)s3)CC2)c1` [Example 48, (2S,4R)—N-(2-((18-(4-(5-(6-(3-cyanopyrrolo[1,2-b]pyridazin-7-yl)-4-(isopropylamino)pyridin-3-yl)-1,3,4-thiadiazol-2-yl)piperazin-1-yl)-18-oxo-3,6,9,12,15-pentaoxaoctadecyl)oxy)-4-(4-methylthiazol-5-yl)benzyl)-1-((S)-2-(1-fluorocyclopropane-1-carboxamido)-3,3-dimethylbutanoyl)-4-hydroxypyrrolidine-2-carboxamide], the IC50 was determined as 4 nM at IRAK4 [1] (Table 4) and 4 nM on IRAK4 [1] (Table 5, multiple runs). Besides, the Dmax on IRAK4 [2] (setting [4]) and on IRAK4 [2] (setting [3]) was 119% in each case. In addition, the DC50 on IRAK4 [2] (Table 4) was found to be 691 nM; at IRAK4 [2] (Table 5, multiple runs), 691 nM.
`CNc1cc(-c2ccc3cc(C#N)cnn23)ncc1-c1nnc(N2CCN(C3CCN(C(=O)c4ccc5c(c4)C(=O)N(C4CCC(=O)NC4=O)C5)CC3)CC2)s1` (centres unmarked) [Example 99, 7-(5-(5-(4-(1-(2-(2,6-dioxopiperidin-3-yl)-3-oxoisoindoline-5-carbonyl)piperidin-4-yl)piperazin-1-yl)-1,3,4-thiadiazol-2-yl)-4-(methylamino)pyridin-2-yl)pyrrolo[1,2-b]pyridazine-3-carbonitrile]: the 50% inhibitory concentration (IC50) on IRAK4 [1] (Table 5, multiple runs) came to 0.3 nM. At IRAK4 [2] (setting [3]), the Dmax was determined as 116%. The half-maximal degradation concentration (DC50) on IRAK4 [2] (Table 5, multiple runs) was 3.59 nM.
Consider `CC(C)Nc1cc(-c2ccc3cc(C#N)cnn23)ncc1-c1nnc(N2CCN(C3CCN(C[C@H]4CCN(c5ccc6c(c5)C(=O)N(C5CCC(=O)NC5=O)C6=O)C4)CC3)CC2)s1` (stereo partly drawn) [Example 17, 7-(5-(5-(4-(1-(((3R)-1-(2-(2,6-dioxopiperidin-3-yl)-1,3-dioxoisoindolin-5-yl)pyrrolidin-3-yl)methyl)piperidin-4-yl)piperazin-1-yl)-1,3,4-thiadiazol-2-yl)-4-(isopropylamino)pyridin-2-yl)pyrrolo[1,2-b]pyridazine-3-carbonitrile], for which the IC50 on IRAK4 [1] (Table 4) was found to be 1.4 nM; at IRAK4 [1] (Table 5, multiple runs) it was 1.4 nM. Moreover, the Dmax on IRAK4 [2] (setting [4]) turned out to be 69%; at IRAK4 [2] (setting [3]), 77%. In addition, the DC50 on IRAK4 [2] (Table 4) was 139 nM; on IRAK4 [2] (Table 5, multiple runs), 168 nM.
With `CNc1cc(-c2ccc3cc(C#N)cnn23)ncc1-c1nnc([C@H]2CC[C@H](N(C)CC3CCN(c4ccc(C(=O)N(C)C5CCC(=O)NC5=O)cc4)CC3)CC2)s1` (some centres unmarked) [Example 189, 4-(4-((((1r,4r)-4-(5-(6-(3-cyanopyrrolo[1,2-b]pyridazin-7-yl)-4-(methylamino)pyridin-3-yl)-1,3,4-thiadiazol-2-yl)cyclohexyl)(methyl)amino)methyl)piperidin-1-yl)-N-(2,6-dioxopiperidin-3-yl)-N-methylbenzamide], the IC50 at IRAK4 [1] (Table 5, multiple runs) is 0.3 nM. The Dmax on IRAK4 [2] (setting [3]) is 62%. The DC50 at IRAK4 [2] (Table 5, multiple runs) came out at 192 nM.
The matching figures for `CNc1cc(-c2ccc3cc(C#N)cnn23)ncc1-c1nnc(N2CC3(CCN(C(=O)C4CCN(c5ccc6c(c5)C(=O)N(C5CCC(=O)NC5=O)C6=O)CC4)CC3)C2)s1` (centres unmarked) [Example 176, 7-(5-(5-(7-(1-(2-(2,6-dioxopiperidin-3-yl)-1,3-dioxoisoindolin-5-yl)piperidine-4-carbonyl)-2,7-diazaspiro[3.5]nonan-2-yl)-1,3,4-thiadiazol-2-yl)-4-(methylamino)pyridin-2-yl)pyrrolo[1,2-b]pyridazine-3-carbonitrile]: 0.5 nM, 105% and 31.5 nM.
The matching figures for `CC(C)Nc1cc(-c2ccc3cc(C#N)cnn23)ncc1-c1nnc(N2CCC3(CCN(Cc4ccc5c(c4)C(=O)N(C4CCC(=O)NC4=O)C5=O)CC3)CC2)s1` (centres unmarked) [Example 81, 7-(5-(5-(9-((2-(2,6-dioxopiperidin-3-yl)-1,3-dioxoisoindolin-5-yl)methyl)-3,9-diazaspiro[5.5]undecan-3-yl)-1,3,4-thiadiazol-2-yl)-4-(isopropylamino)pyridin-2-yl)pyrrolo[1,2-b]pyridazine-3-carbonitrile]: 1.8 nM, 81% and 64.9 nM.
On the same counts, the results for `CNc1cc(-c2ccc3cc(C#N)cnn23)ncc1-c1nnc(C23CCC(NC(=O)CC(C)(C)C(=O)N[C@H](C(=O)N4C[C@H](O)C[C@H]4C(=O)N[C@@H](C)c4ccc(-c5scnc5C)cc4)C(C)(C)C)(CC2)CC3)s1` [Example 155, N4-(4-(5-(6-(3-cyanopyrrolo[1,2-b]pyridazin-7-yl)-4-(methylamino)pyridin-3-yl)-1,3,4-thiadiazol-2-yl)bicyclo[2.2.2]octan-1-yl)-N1—((S)-1-((2S,4R)-4-hydroxy-2-(((S)-1-(4-(4-methylthiazol-5-yl)phenyl)ethyl)carbamoyl)pyrrolidin-1-yl)-3,3-dimethyl-1-oxobutan-2-yl)-2,2-dimethylsuccinamide] are 2.4 nM, 90% and 519 nM.
